Active and inactive are the calls of the source.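 How the source made its calls: active means compounds giving half or more protection of infected cells from virus-caused growth loss, again on retest; inactive means the rest.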 Where a SMILES comes first, the peptide text is derived from it. [ ]: non-standard residue; d: D form. ξ: configuration not given here. Ac5c = NC1(C(=O)O)CCCC1; ξS = NC(CO)C(=O)O
System: CEM cells HIV-1 protection, formazan growth assay
Assay: NCI AIDS Antiviral Assay
Conditions: for IC50: measured here: growth of uninfected CEM cells
Method in brief: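 Soluble formazan readout of cell growth; CEM cells ± HIV-1; 5 drug concs. ≥50% protection → retest; ≥50% again = moderately active; reproducible 100% = confirmed active.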

Compound	outcome	EC50 [µM]	IC50 [µM]
CCC1C2CC3C4N(C)c5ccccc5C45CC(C2C5O)N3C1O (centres undefined)	inactive		
Cc1cc(NS(=O)(=O)c2ccc(Nc3c4ccccc4nc4c(C(=O)N5CCN(CCOS(C)(=O)=O)CC5)cccc34)cc2)no1		> 44.7	> 44.7
CC(C)(C)OC(=O)NC1CC=CCC1NC(=O)OC(C)(C)C (centres undefined)		> 200	> 200
C=C(C)C(O)C(OCC)c1c(OC)ccc2ccc(=O)oc12 (centres undefined)		> 200	> 200
CCCC(=O)OCc1cc(=O)n(C)c2c3c4c(cc12)c(C)cc(=O)n4CO3		> 174	6.76
COC(=O)c1cc2c(s1)C(=O)c1ccccc1-2		> 2.24	> 2.24
COC(=O)C1C(c2ccccc2)=N[C@@H](c2ccccc2)[C@H]1C(=O)OC (some centres undefined)		> 11.2	> 11.2
CC(CO)CCNc1ncnc2c1ncn2CCC#N (centres undefined)		> 200	> 200
C=CC(C)(O)CN(C=O)Cc1ccccc1 (centres undefined)		> 589	> 589
NC(CSS(=O)(=O)O)=NCCCOCc1ccccc1		> 200	112
CCOC(=O)CNC(=O)C(C)NC(=O)C(NC(=O)CC(c1ncc[nH]1)c1ncc[nH]1)C(C)CC (centres undefined)		> 100	> 100
Nc1nn2cc3c(nc2c1N=Nc1ccccc1)-c1ccccc1C3		> 200	> 200
Cc1c(C(=O)C/C(=N/NC(=O)c2ccccc2O)C(=O)Nc2ccccc2C(C)C)[n+](=O)c2ccccc2n1[O-]		> 6.92	> 6.92
CC1CN=C(N(C)C(=O)Nc2ccc(Cl)c(Cl)c2)S1 (centres undefined)		> 200	37.2
CN1CCN(c2n[nH]c(=O)c3c2nnn3Cc2ccccc2)CC1		> 200	> 200
CCCCCC#COC1CC(C)CC[C@@H]1C(C)C (some centres undefined)		> 200	110
NC(=O)CCNC(=O)c1ccccc1SC(=O)CCCC[n+]1ccccc1		1.95	174
CCOC(=O)/C(C(=S)NC)=C(/N)N1CCCC1		> 200	> 200
CC(=O)C(N)=NCc1ccccc1		> 1410	1020
Cc1cc(C=C2C(=O)NC(=S)NC2=O)c(C)n1-c1ccccc1		> 6.17	> 6.17
CCOC(=O)C=C1CCC2(CC1)OCCO2		> 251	> 251
O=[N+]1[C@H](c2ccccc2)[C@H](c2ccccc2)N1[O-]		> 200	11.5
O=C(/C=C/c1ccccc1)CCN1CCCCC1		> 200	10.2

Compound	outcome	EC50 [µM]	IC50 [µM]
CCOC(=O)C(CO)NC(=O)C1(NC(C)=O)CCCC1 (centres undefined) (Ac-[Ac5c]-[ξS]-OEt)		> 200	> 200
COC(=O)c1c(C(=O)OC)c2ccccn2c1-c1cc(OC)c(Br)c(=O)o1		> 200	> 200
Cc1ccc(NC(=O)CCC(=O)C2CC(=O)CCC2=O)cc1C (centres undefined)		> 794	> 794
CCCCCCCCCCOCCC(=O)OCC1OC(n2cc(C)c(=O)[nH]c2=O)CC1N=[N+]=[N-] (centres undefined)	active		33.9
COc1cc(N=CNc2cc(OC)n[n+]([O-])c2)c[n+]([O-])n1		> 224	> 224
Nc1ccn(C2CC(O)C(COP(=O)(O)OC3C(COP(=O)(O)O)OCC3n3cnc4c(N)ncnc43)O2)c(=O)n1 (centres undefined)		> 200	> 200
CN(C)C=Nc1cccc2c1NSN2		> 200	> 200
O=C(CN1CCC(O)(c2ccccc2)CC1)N1CCN(/C=C/c2ccccc2)CC1		> 200	58.9
COC(=O)C1=C(C(=O)OC)C2C(C)=CC(C)=CN2C(C#N)=C(SC)S1 (centres undefined)		> 13.8	> 13.8
CC(C)(C)CC(C)(C)c1ccc(O)c(SSc2cc(C(C)(C)CC(C)(C)C)ccc2O)c1		> 200	25.7
Cc1ccc(C(=O)/C=C/c2ccc3c(c2)OCO3)cc1		> 19.5	> 19.5
O=C(c1c(O)cc(O)cc1O)c1c(-c2ccc(O)cc2)oc2cc(O)c3c(c12)O[C@H](c1ccc(O)cc1)[C@@H](O)C3		16.6	138
CCOP(=O)(O)C1C(CO)OC(n2ccc(=O)[nH]c2=O)C1O (centres undefined)		> 200	> 200
O=C(Nc1nc2ncn(CCO)c2c(=O)[nH]1)c1ccccc1		> 832	> 832
O=C1NC2(CCCCC2)C2CCCCC(O)C12 (centres undefined)	inactive		
N#Cc1nc(-c2ccccn2)oc1N		> 200	> 200
O=S1(=O)O[C@H]2CCCC[C@H]2O1		> 40.7	> 40.7
CC(=O)NC(C)(C)C1CC=C(C)/C(=N\O)C1 (centres undefined)		> 1120	776
Cc1cc(C)c(C)c(C(=O)OCC(C)(C)C)c1C		> 200	110
c1ccc(-c2nnc(SCc3nc4ccccc4[nH]3)o2)cc1		> 200	31.6
COC(=O)C(=O)C(C(=O)C(=O)Nc1ccccc1C(=O)OC)c1nc2ccc(C(=O)c3ccccc3)cc2[nH]c1=O (centres undefined)		> 89.1	52.5
Cn1c2ccccc2c2c(-c3ccccc3)cc3c(c21)C(=O)C=CC3=O		> 100	5.5
N#CNC(=NCC1CCCO1)Nc1cccnc1 (centres undefined)		> 1020	933

Compound	outcome	EC50 [µM]	IC50 [µM]
C=CCNC(=O)NCCCCC(NC(C)=O)C(=O)NCc1ccccc1 (centres undefined)		> 692	> 692
CC(=O)NN1CCN(C)CC1		> 200	> 200
COC(=O)C1=CO[C@@H](C)[C@H]2CN3CC[C@]4(C(=O)Nc5ccccc54)[C@@H]3C[C@H]12		> 200	> 200
O=C1c2ccccc2C(=O)c2c(NCCNC(=O)C3CCCN3)ccc(NCCNC(=O)C3CCCN3)c21 (centres undefined)		> 151	22.4
CC(C)Oc1cc2c(c3oc(=O)cc(-c4ccccc4)c13)C(=O)[C@H](C)[C@@H](C)O2		> 200	51.3
O=C(O)c1cc(N=Cc2cc(O)ccc2O)ccc1O		> 182	22.9
CN(C)CCNc1ccc(NCC[N+](C)(C)Cc2ccc([N+](=O)[O-])cc2)c2c1C(=O)c1c(O)ccc(O)c1C2=O		> 20	0.891
CN(C)C=Nc1c(I)cc(I)c(CCC(=O)O)c1I		> 200	> 200
Cc1cc(=O)oc2cc(OCC(O)COC(C)C)ccc12 (centres undefined)		> 200	129
c1cc2n[se]nc2cc1-c1ccc2n[se]nc2c1		155	> 200
CCOC(=O)C1=C(c2ccccc2)N(C(C)=O)Cc2ccccc21		> 50.1	28.2
COC(=O)C1=CC2OC1(C)C1(CC1)C2=O (centres undefined)	inactive		
O=C(NC1C=Nc2ccccc2NC1=O)c1ccccc1Cl (centres undefined)		> 115	97.7
Cc1cc(S(=O)(=O)Nc2n[nH]c(N)n2)c(SCC(=O)O)cc1Cl		> 200	> 200
CC1(C)CCCCCCCCCC(C)(CCCCCCCCCCCCO)C1=O (centres undefined)		> 200	18.6
C[N+]1(C)N=C(c2ccccc2)C=C1[O-]		> 200	> 200
CCOC(=O)/C=C/c1ccc2c(c1)OC(CO)[C@H](c1ccc(O)c(OC)c1)O2 (some centres undefined)		> 339	77.6
CCCC1(C)OC(=O)C(c2ccccc2)O1 (centres undefined)		> 200	> 200
Cn1c(O)c(/C=N/c2ncccn2)c(=O)[nH]c1=O		> 200	> 200
CN(C)c1ccc(/C=C(\NC(=O)c2ccccc2)C(=O)NC(CCC(=O)O)C(=O)O)cc1 (centres undefined)		> 50.1	34.7
CC(=O)/C=C/c1cccc(N=S)c1		> 2.82	> 2.82
CC(SSC(C)N1C(=O)c2ccccc2C1=O)N1C(=O)c2ccccc2C1=O (centres undefined)		> 100	> 100
NC(=S)/N=C/c1c(O)c2ccccc2oc1=O		> 55	> 55

Compound	outcome	EC50 [µM]	IC50 [µM]
CN(/N=C/C=N/N(C)C1=NCCCCN1)C1=NCCCCN1		> 200	> 200
CN(C(=O)c1ccc2c(c1)sc1c(=O)n(C)c3ccccc3c12)c1ccccc1		> 200	> 200
CCOC(=O)c1nc(SC)sc1NC(=O)c1ccc(Cl)cc1		> 200	195
Cc1cccc(C(=O)c2ccccc2)c1C(=O)O		> 200	> 200
Cc1noc(NC2=CC(=O)C(=O)c3ccccc32)c1C		> 200	3.98
NC(=O)C(=CNC(=S)N=Nc1c(O)[nH]c2ccccc12)C(N)=O		> 200	166
CN(C)C(=S)/N=C1\SC(=Nc2ccccc2)C(=Nc2ccccc2)N1c1ccc([N+](=O)[O-])cc1		> 200	138
C1=CC2=CC=CC3c4nc5ccc6ccccc6c5nc4C(=C1)C23 (centres undefined)		> 200	> 200
O=[As](O)(O)c1cccc(F)c1		> 200	107
CO/C(=N\N=C\c1ccc(OC)cc1OC)c1ccncc1		> 229	105
N#Cc1cc2c(N)ncnc2nc1N1CCCC1		> 200	191
COc1ccc(NC(=O)CC2SC(=Nc3ccccc3C)NC2=O)c([N+](=O)[O-])c1 (centres undefined)	inactive		
CC1=C(O)C(=O)C(C)=C(O)C1=O		> 513	9.33
COc1cc(\C=N/N=C/C=C/c2ccccc2)cc(OC)c1OC	inactive		
O=C(O)c1cccc(C(=O)O)c1-c1c(C(=O)O)cccc1C(=O)O		> 200	> 200
CCn1c(=O)ccc2ccc(N(CCO)CCO)nc21		> 200	151
COc1ccc(/C(C#N)=C/c2cc(OC)c(OC)c(OC)c2)cc1		> 200	5.75
CC(C)CC(NC(=O)C(Cc1ccc(O)cc1)NC(=O)C(CO)NC(=O)C(CCC(N)=O)NC(=O)C1CCCN1C(=O)C(CC(C)C)NC(=O)C(C)NC(=O)CNC(=O)C(N)CCC(N)=O)C(=O)NCC(=O)O (centres undefined) (H-QGALPQSYLG-OH; configuration not given here)	inactive		
CC1=C(N2CC2)C(=O)c2nc3n(c2C1=O)CCC3OC(=O)CCl (centres undefined)		> 200	0.692
O=S(=O)(Cc1ccccc1)SCc1ccccc1		> 79.4	6.31
COC(OC(CO)C(O)S(=O)(=O)O)C(O)S(=O)(=O)O (centres undefined)		> 200	32.4

From PubChem BioAssay AID179 (DTP/NCI, 2004)
